Patent publication US5043354A, “Pharmaceutically useful 5-hydroxy-2,3-dihydro-benzofurans and 5-hydroxy-benzofurans” (Fujisawa Pharmaceutical Co., Ltd., priority 1989, dated 1991)
pIC50: −log10 of the molar value.

What was measured:
[1] = target: xanthine oxidase-hypoxanthine (XO/HX) reaction; test: Inhibitory effect on luminol-induced chemiluminescence (CL) which results from xanthine oxidase-hypoxanthine (XO/HX) reaction; format: biochemical, cow; conditions: 37° C, peak intensity, sample in dimethylsulfoxide
Description: Inhibitory effect on luminol-induced chemiluminescence (CL) which results from xanthine oxidase-hypoxanthine (XO/HX) reaction.
Four hundred and fifty micro liter of […] hypoxanthine (Kohjin Co., Ltd.) in 0.lM phosphate buffer solution (PBS)(pH 7.6), 10 μl of 1 mg/ml luminol (Nakarai Chemicals, Ltd.) in PBS and 10 μl of sample dissolved in dimethylsulfoxide were mixed in a round-bottomed vial, and preincubated for 3 min. at 37° C. And then, 50 μl of 0.05 unit/ml xanthine oxidase in 0.lM phosphate buffer solution (from cow milk, Boehringer Mannhein GmbH) was added. For the measurement of CL, a Biolumat (LB 9505, Berthold, FRG) was used. The vial containing XO/HX reaction mixture was placed into a Biolumat chamber at 37° C, and CL was continuously monitored using a computer (PC 9801 VM, NEC). Peak intensity was used as an index of CL.

Solubility = format: physicochemical
rat brain homogenate = test: Inhibitory effect on iron-dependent lipid peroxidation of rat brain homogenate (TBA-reactive products); format: biochemical, rat (male Sprague-Dawley); conditions: 37° C, 20 min
Description: Inhibitory effect on iron-dependent lipid peroxidation of rat brain homogenate
Method : (reported by J. M. Braughler et al.^1))
After decapitation,the brain was quickly removed (minus cerebellum), weighed, and placed in ice-cold Krebs buffer solution. The brain was homogenized in a ratio of 1 g of wet tissue to 9 ml of buffer in a teflon homogenizer. Homogenates were used immediately in lipid p-roxidation assays as follows.
* HEPES : N-(2-hydroxyethyl)piperazine-N'-2-ethanesulfonic acid (Sigma)
To the reaction mixture consisted of 50 μl of 6.25 mg/ml brain homogenate in Krebs buffer solution, 110 μl of Krebs buffer solution, 20 μl of sample dissolved in methanol was added 20 μl of aqueous 2 mM Fe(NH4)2 (SO4)2 solution, which was prepared freshly, at 37° C. After 20 min, the reaction was terminated by the addition of 30 μl of 35% perchloric acid. Then 20 μl of 500 μM desferoxamine mesylate (Sigma) in Krebs buffer solution was added to the reaction mixture to prevent further lipid peroxydation. After centrifugation at 2000 xg, 10 min, 4° C., 50 μl of supernatant was subsequently assayed for lipid peroxide.
Lipid peroxide was assessed as TBA-reactive product as described by H. Ohkawa et al ^2). The reaction mixture consisted of 50 μl of above-mentioned supernatant, 100 μl of aqueous 8.1% sodium dodecyl sulfate (SDS) solution, 750 μl of aqueous 20% acetic acid solution which was adjusted with aqueous lN NaOH solution to pH 3.5, 750 μl of aqueous 0.67% 2-thiobarbituric acid solution and 350 μl of distilled water was boiled for 1 hour and cooled in ice bath rapidly. 0.5 ml of distilled water and 2.5 ml of the mixture of n-butanol and pyridine (15:1, V/V) were added, and the mixture was shaken vigorously. After centrifugation at 1250 xg for 10 min, the fluorescence (excitation; 515 nm, emission; […]) of the organic layer was determined.

Compound: COc1cc2c(cc1O)CC(C(C)(C)O)O2 (racemic) [Example 1, 2,3-dihydro-2-(1-hydroxy-1-methylethyl)-6-methoxy-5-benzofuranol]
- pIC50 [1]: 6.42

Compound: COc1cc2oc(C(C)C)cc2cc1O [Example 2, 5-hydroxy-6-methoxy-2-(1-methylethyl)benzofuran]
- pIC50 [1]: 8.33

Compound: COc1cc2c(cc1O)CC(C(C)(C)O)O2 (stereo not shown) [Example 3, 2,3-Dihydro-2-(1-hydroxy-1-methylethyl)-6-methoxy-5-benzofuranol]
- Solubility (Solubility; chloroform, diethyl ether, ethyl acetate, acetone, methanol and ethanol): Soluble
- Solubility (Solubility; hexane, water): Sparingly Soluble
- pIC50 [1]: 6.49
- Inhibition of TBA-reactive products generation (rat brain homogenate; concentration 10^-4 M): 95.5%
- Inhibition of TBA-reactive products generation (rat brain homogenate; concentration 10^-5 M): 45.4%
- Inhibition of TBA-reactive products generation (rat brain homogenate; concentration 10^-6 M): 20.0%
- Inhibition of TBA-reactive products generation (rat brain homogenate; concentration 10^-7 M): 11.4%

Compound: Cc1c(C)c2c(c(C)c1O)CCC(C)(CCCC(C)CCCC(C)CCCC(C)C)O2 (stereo not drawn) [α-Tocopherol, reference compound]
- Inhibition of TBA-reactive products generation (rat brain homogenate; concentration 10^-4 M): 65.3%
- Inhibition of TBA-reactive products generation (rat brain homogenate; concentration 10^-5 M): 25.7%
- Inhibition of TBA-reactive products generation (rat brain homogenate; concentration 10^-6 M): 9.3%
- Inhibition of TBA-reactive products generation (rat brain homogenate; concentration 10^-7 M): 0%
